Assay results: ChEMBL document CHEMBL2385040, “Synthesis and antiproliferative activity of 4-substituted-piperazine-1-carbodithioate derivatives of 2,4-diaminoquinazoline” (Eur J Med Chem, 2013)
The source made the active and inactive calls. The rule behind the calls is not given here.

How the values were obtained:
[1] = test system: HCT-116; test: Induction of DNA damage in human HCT116 cells assessed as G2/M checkpoint activation measured as reduction in mitotic index after 2 hrs by immunofluorescence assay; format: functional
[2] = test system: HCT-116; test: Induction of DNA damage in human HCT116 cells assessed as formation of marker ser-139 phosphorylated H2AX nuclear foci after 2 hrs by immunofluorescence assay; format: functional, cell-based
[3] = test system: HCT-116; test: Cell cycle arrest in human HCT116 cells assessed as accumulation at G2/M phase at IC50 after 24 hrs by propidium iodide staining-based FACS flow cytometric analysis (reference value: 11.54%); format: functional
[4] = test system: HCT-116; test: Cell cycle arrest in human HCT116 cells assessed as accumulation at S phase at IC50 after 24 hrs by propidium iodide staining-based FACS flow cytometric analysis (reference value: 25.39%); format: functional
[5] = test system: HCT-116; test: Cell cycle arrest in human HCT116 cells assessed as accumulation at G0/G1 phase at IC50 after 24 hrs by propidium iodide staining-based FACS flow cytometric analysis (reference value: 63.07%); format: functional
[6] = target: Thymidylate synthase (Homo sapiens) (UniProt P04818); test: Inhibition of human recombinant His-tagged thymidylate synthase assessed as N5,N10-methylenetetrahydrofolate oxidation to dihydrofolate at 50 uM after 20 mins by UV spectrophotometric analysis relative to control
Thymidylate synthase (Homo sapiens), sequence (P04818 2-313 limits assumed): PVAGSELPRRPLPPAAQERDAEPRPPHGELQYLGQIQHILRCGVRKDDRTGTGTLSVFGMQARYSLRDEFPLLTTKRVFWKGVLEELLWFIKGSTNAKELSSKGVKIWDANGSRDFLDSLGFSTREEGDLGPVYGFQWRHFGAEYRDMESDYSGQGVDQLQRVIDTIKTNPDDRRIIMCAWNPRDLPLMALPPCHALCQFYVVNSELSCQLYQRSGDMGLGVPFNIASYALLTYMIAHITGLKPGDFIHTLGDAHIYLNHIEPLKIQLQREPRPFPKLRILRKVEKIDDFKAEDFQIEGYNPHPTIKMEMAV

[7] = target: T1, Dihydrofolate reductase (Homo sapiens) (UniProt P00374); test: Inhibition of human dihydrofolate reductase at 500 nM by spectrophotometric analysis relative to control
T1 sequence (whole entry): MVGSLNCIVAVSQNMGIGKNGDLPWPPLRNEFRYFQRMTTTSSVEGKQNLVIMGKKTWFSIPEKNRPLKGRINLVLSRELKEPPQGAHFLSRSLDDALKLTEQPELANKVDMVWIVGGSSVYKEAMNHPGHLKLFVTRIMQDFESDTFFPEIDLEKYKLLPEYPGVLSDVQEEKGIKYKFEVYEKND

[8] = target: T2, Dihydrofolate reductase (Homo sapiens, UniProt P00374); test: Inhibition of human dihydrofolate reductase by spectrophotometric analysis
T2 sequence (P00374 whole entry): T1 sequence (whole entry)

[9] = test system: HCT-116; test: Antiproliferative activity against human HCT116 cells after 72 hrs by MTT assay; format: functional, cell-based; details: HCT-116, 72 h
[10] = test system: HeLa; test: Antiproliferative activity against human HeLa cells after 72 hrs by MTT assay; format: functional, cell-based
[11] = test system: HT-29; test: cells; details: Homo sapiens, HT-29, 72 h
[12] = test system: MCF7; test: cells; details: Homo sapiens, MCF7, 72 h
[13] = test system: A549; test: cells; details: Homo sapiens, A549, 72 h
Description: Antiproliferative activity against human A549 cells after 72 hrs by MTT assay

[14] = target: Thymidylate synthase (Homo sapiens) (UniProt P04818); details: 1 uM
Description: Inhibition of human recombinant His-tagged thymidylate synthase assessed as N5,N10-methylenetetrahydrofolate oxidation to dihydrofolate at 1 uM after 20 mins by UV spectrophotometric analysis relative to control

[15] = test system: HCT-116; test: Antiproliferative activity against human HCT116 cells at 20 uM after 72 hrs by MTT assay relative to control; format: functional, cell-based; details: HCT-116, 72 h
[16] = test system: HT-29; test: Antiproliferative activity against human HT-29 cells at 20 uM after 72 hrs by MTT assay relative to control; format: functional, cell-based; details: HT-29, 72 h
[17] = test system: HeLa; test: Antiproliferative activity against human HeLa cells at 20 uM after 72 hrs by MTT assay relative to control; format: functional, cell-based
[18] = test system: MCF7; test: Antiproliferative activity against human MCF7 cells at 20 uM after 72 hrs by MTT assay relative to control; format: functional, cell-based; details: MCF7, 72 h
[19] = test system: A549; test: Antiproliferative activity against human A549 cells at 20 uM after 72 hrs by MTT assay relative to control; format: functional, cell-based; details: A549, 72 h

## Nc1nc(N)c2cc(CSC(=S)N3CCN(c4ccc(F)cc4)CC3)ccc2n1
[1]
  Ratio: 0.45
[2]
  Activity: Active
[3]
  Activity: 14.15%
[4]
  Activity: 39.22%
[5]
  Activity: 46.63%
[6]
  inhibition: 19.9%
[7]
  inhibition: 35%
[8]
  IC50: 2.11 µM
[9]
  IC50: 3.27 µM
[10]
  IC50: 1.84 µM
[11]
  IC50: 2.05 µM
[12]
  IC50: 1.92 µM
[13]
  IC50: 2.04 µM

## Nc1nc(N)c2cc(CSC(=S)N3CCN(c4ccc(F)cc4F)CC3)ccc2n1
[9]
  IC50: 5.15 µM
[10]
  IC50: 3.8 µM
[11]
  IC50: 5.02 µM
[12]
  IC50: 3.67 µM
[13]
  IC50: 5.12 µM

## Cc1nc(=O)c2cc(CN(C)c3ccc(C(=O)N[C@@H](CCC(=O)O)C(=O)O)s3)ccc2[nH]1
[14]
  inhibition: 94.2%

## CN1CCN(C(=S)SCc2ccc3nc(N)nc(N)c3c2)CC1
[15]
  IC50: > 20 µM
[16]
  IC50: > 20 µM
[17]
  IC50: > 20 µM
[18]
  IC50: > 20 µM
[13]
  IC50: 9.2 µM

## Nc1nc(N)c2cc(CSC(=S)N3CCN(C4CCCCC4)CC3)ccc2n1
[9]
  IC50: 8.4 µM
[10]
  IC50: 5.96 µM
[11]
  IC50: 4.05 µM
[12]
  IC50: 6.8 µM
[13]
  IC50: 4.71 µM

## CC[C@@]1(O)C(=O)OCc2c1cc1n(c2=O)Cc2cc3ccccc3nc2-1 [CAMPTOTHECIN]
[1]
  Ratio: 0.64

## Nc1nc(N)c2cc(CSC(=S)N3CCN(c4ncccn4)CC3)ccc2n1
[9]
  IC50: 5.84 µM
[10]
  IC50: 4.36 µM
[11]
  IC50: 4.72 µM
[12]
  IC50: 4.19 µM
[13]
  IC50: 4.01 µM

## Nc1nc(N)c2cc(CSC(=S)N3CCN(c4ccccc4Cl)CC3)ccc2n1
[9]
  IC50: 5.49 µM
[10]
  IC50: 4.05 µM
[11]
  IC50: 3.9 µM
[12]
  IC50: 3.19 µM
[13]
  IC50: 3.61 µM

## Nc1nc(N)c2cc(CSC(=S)N3CCN(c4ccc(C(F)(F)F)cc4)CC3)ccc2n1
[15]
  IC50: > 20 µM
[16]
  IC50: > 20 µM
[17]
  IC50: > 20 µM
[19]
  IC50: > 20 µM
[12]
  IC50: 7.4 µM

## Nc1nc(N)c2cc(CSC(=S)N3CCN(c4ccccc4[N+](=O)[O-])CC3)ccc2n1
[9]
  IC50: 5.52 µM
[10]
  IC50: 4.88 µM
[11]
  IC50: 4.31 µM
[12]
  IC50: 4.35 µM
[13]
  IC50: 4.36 µM

## Nc1nc(N)c2cc(CSC(=S)N3CCN(c4ccccc4)CC3)ccc2n1
[9]
  IC50: 4.12 µM
[10]
  IC50: 2.84 µM
[11]
  IC50: 2.76 µM
[12]
  IC50: 2.95 µM
[13]
  IC50: 2.97 µM

## O=c1[nH]cc(F)c(=O)[nH]1 [FLUOROURACIL]
[2]
  Activity: inactive
[3]
  Activity: 6.81%
[4]
  Activity: 47.75%
[5]
  Activity: 45.44%
[9]
  IC50: 5.53 µM
[10]
  IC50: 43.7 µM
[11]
  IC50: 24.5 µM
[12]
  IC50: 32.2 µM
[13]
  IC50: 3.52 µM

## Cc1ccc(N2CCN(C(=S)SCc3ccc4nc(N)nc(N)c4c3)CC2)cc1
[9]
  IC50: 5.51 µM
[10]
  IC50: 2.13 µM
[11]
  IC50: 3.02 µM
[12]
  IC50: 2.48 µM
[13]
  IC50: 2.19 µM

## Nc1nc(N)c2cc(CSC(=S)N3CCN(c4ccc([N+](=O)[O-])cc4)CC3)ccc2n1
[1]
  Ratio: 0.67
[2]
  Activity: Active
[3]
  Activity: 15.8%
[4]
  Activity: 39.46%
[5]
  Activity: 44.74%
[6]
  inhibition: 14.1%
[7]
  inhibition: 29%
[8]
  IC50: 1.61 µM
[9]
  IC50: 4.68 µM
[10]
  IC50: 1.66 µM
[11]
  IC50: 3.32 µM
[12]
  IC50: 1.47 µM
[13]
  IC50: 1.91 µM

## Nc1nc(N)c2cc(CSC(=S)N3CCN(c4ccc(O)cc4)CC3)ccc2n1
[9]
  IC50: 5.98 µM
[16]
  IC50: > 20 µM
[10]
  IC50: 5.18 µM
[12]
  IC50: 5.09 µM
[13]
  IC50: 4.21 µM

## Nc1nc(N)c2cc(CSC(=S)N3CCN(c4ccc(Cl)c(Cl)c4)CC3)ccc2n1
[9]
  IC50: 6.68 µM
[10]
  IC50: 3.06 µM
[11]
  IC50: 3.48 µM
[12]
  IC50: 2.37 µM
[13]
  IC50: 2.94 µM

## Nc1nc(N)c2cc(CSC(=S)N3CCN(Cc4ccccc4)CC3)ccc2n1
[9]
  IC50: 4.91 µM
[10]
  IC50: 8.35 µM
[11]
  IC50: 8.49 µM
[12]
  IC50: 8.46 µM
[13]
  IC50: 3.31 µM

## Cc1ccccc1N1CCN(C(=S)SCc2ccc3nc(N)nc(N)c3c2)CC1
[9]
  IC50: 11.8 µM
[11]
  IC50: 2.95 µM
[12]
  IC50: 4.23 µM
[13]
  IC50: 3.92 µM

## Nc1nc(N)c2cc(CSC(=S)N3CCN(c4ccccn4)CC3)ccc2n1
[9]
  IC50: 5.96 µM
[10]
  IC50: 5.09 µM
[11]
  IC50: 6.2 µM
[12]
  IC50: 5.11 µM
[13]
  IC50: 3.96 µM

## Nc1nc(N)c2cc(CSC(=S)N3CCN(c4ccc(Cl)cc4)CC3)ccc2n1
[9]
  IC50: 7.38 µM
[10]
  IC50: 6.99 µM
[11]
  IC50: 7.48 µM
[12]
  IC50: 4.88 µM
[13]
  IC50: 5.21 µM

## CC(=O)c1ccc(N2CCN(C(=S)SCc3ccc4nc(N)nc(N)c4c3)CC2)cc1
[9]
  IC50: 8.26 µM
[10]
  IC50: 2.04 µM
[11]
  IC50: 2.28 µM
[12]
  IC50: 2.49 µM
[13]
  IC50: 2.55 µM

## COc1ccc(N2CCN(C(=S)SCc3ccc4nc(N)nc(N)c4c3)CC2)cc1
[1]
  Ratio: 0.76
[2]
  Activity: Active
[3]
  Activity: 14.29%
[4]
  Activity: 33.34%
[5]
  Activity: 52.36%
[6]
  inhibition: 15.2%
[7]
  inhibition: 24%
[8]
  IC50: 5.96 µM
[9]
  IC50: 2.27 µM
[10]
  IC50: 1.66 µM
[11]
  IC50: 1.77 µM
[12]
  IC50: 1.58 µM
[13]
  IC50: 1.59 µM

## Cc1ccc(N2CCN(C(=S)SCc3ccc4nc(N)nc(N)c4c3)CC2)c(C)c1
[9]
  IC50: 4.07 µM
[10]
  IC50: 3.19 µM
[11]
  IC50: 2.97 µM
[12]
  IC50: 3.12 µM
[13]
  IC50: 3 µM

## Nc1nc(N)c2cc(CSC(=S)N3CCN(c4ccccc4F)CC3)ccc2n1
[10]
  IC50: 6.66 µM
[11]
  IC50: 5.42 µM
[12]
  IC50: 4.84 µM
[13]
  IC50: 6.46 µM
